Our source for the z.score.t values is patent US20260053861A1, “CELL COMPOSITIONS AND METHODS OF USING THE SAME” (THE REGENTS OF THE UNIVERSITY OF CALIFORNIA, priority 2022, published 2026).

Counter-ions that a name gives are not always drawn.

In the first experiment the test system is hPSC-SCs.
Details: not given
`COc1cc2cc3c4cc(OC)c(OC)cc4cc[n+]3c(C)c2cc1OC.O.[Cl-]` [Coralyne chloride hydrate]: the z.score.t is listed as −1.014.
The same measure, in the same setting: as for `CC=CC(=O)N(CC)c1ccccc1C` [Crotamiton], the figure is −1.426; as for `C[C@@H]1C[C@@H]([C@H](O)CC2CC(=O)NC(=O)C2)C(=O)[C@@H](C)C1` [Cycloheximide], −2.003.
`COc1ccccc1N1CCN(CCCCNC(=O)c2ccc3ccccc3c2)CC1.Cl.Cl` [DO 897/99] came in with a z.score.t of −0.4139.
Molecule `COc1cccc2c1C(=O)c1c(O)c3c(c(O)c1C2=O)C[C@@](O)(C(C)=O)C[C@@H]3O[C@H]1C[C@H](N)[C@H](O)[C@H](C)O1` [Daunorubicin hydrochloride] returned a z.score.t of −1.999.
Turning to `CC(=O)N(O)CCCCCNC(=O)CCC(=O)N(O)CCCCCNC(=O)CCC(=O)N(O)CCCCCN` [Deferoxamine mesylate], the z.score.t stood at 0.557.
Turning to `CC(=O)O[C@H]1CC[C@@]2(C)C(=CC[C@@H]3[C@@H]2CC[C@]2(C)C(=O)CC[C@@H]32)C1` [Dehydroisoandosterone 3-acetate], the z.score.t is 0.7349.
On the same count and under the same terms, the same measure for `CCN1C[C@]2(COC)CC[C@H](OC)[C@]34C5C[C@@H]6[C@@H](OC)C[C@@]7(OCO[C@@]7(C13)[C@@H](O)C24)C5[C@H]6OC` (stereo partly drawn) [Delcorine]: −0.9741; for `CCN1C[C@]2(COC)CC[C@H](O)[C@]34C1[C@@](O)([C@@H](OC)[C@H]23)[C@@]1(O)C[C@H](OC)[C@H]2C[C@@H]4[C@@H]1[C@H]2OC` [Delsoline]: 1.566; for `CCN1C[C@]2(C)CC[C@H](OC)[C@@]34C1[C@]1(OCO[C@@]15C[C@H](OC)[C@H]1C[C@]3(O)[C@@H]5[C@H]1OC)[C@@H](OC(C)=O)[C@H]24` [Deltaline]: 0.1693.
The molecule `CN(CCCCCCCCCCN(C)C(=O)Oc1cccc([N+](C)(C)C)c1)C(=O)Oc1cccc([N+](C)(C)C)c1` [Demecarium bromide] registered a z.score.t of 1.211.
In the case of `C[C@]12CC[C@H]3[C@@H](CCC4=CC(=O)CC[C@@]43C)[C@@H]1CC[C@@H]2C(=O)CO` [Deoxycorticosterone], the z.score.t was −1.303.
On the same count and under the same terms, the same measure for `C[C@]12CC[C@H](O)C[C@H]1CC[C@@H]1[C@@H]2CC[C@]2(C)[C@@H](C3=CC(=O)OC3)CC[C@]12O` [Digitoxigenin]: −2.008; for `C[C@H]1O[C@@H](O[C@H]2[C@@H](O)C[C@H](O[C@H]3[C@@H](O)C[C@H](O[C@H]4CC[C@@]5(C)[C@H](CC[C@@H]6[C@@H]5C[C@@H](O)[C@]5(C)[C@@H](C7=CC(=O)OC7)CC[C@]65O)C4)O[C@@H]3C)O[C@@H]2C)C[C@H](O)[C@@H]1O` [Digoxin]: −2.04.

The experiment is the same for the next values; noted with them: HTS viability of hPSC-SCs in the presence of 30 mM glucose; Prestwick library; Table S4.
On to `C[C@]12C[C@H](O)[C@H]3[C@@H](CCC4=CC(=O)CC[C@@]43C)[C@@H]1CC[C@@H]2C(=O)CO` [Corticosterone], for which the z.score.t is reported as −0.2486.
With `C[C@]12CCC(=O)C=C1CC[C@@H]1[C@@H]2C(=O)C[C@@]2(C)[C@H]1CC[C@]2(O)C(=O)CO` [Cortisone], the z.score.t came to 0.9568.
Regarding `COC(=O)[C@H]1[C@H]2C[C@H]3c4[nH]c5ccccc5c4CCN3C[C@@H]2CC[C@@H]1O.Cl` [Corynanthine hydrochloride], the z.score.t was determined as 1.095.
Turning to `O=C(O)c1cc(=O)c2c(OCC(O)COc3cccc4oc(C(=O)O)cc(=O)c34)cccc2o1` [Cromolyn disodium salt], the z.score.t is given as 0.557.
On the same count and under the same terms, the same measure for `CN1CCN(C(c2ccccc2)c2ccccc2)CC1` [Cyclizine hydrochloride]: 0.5437; for `CN(C)CCC=C1c2ccccc2C=Cc2ccccc21` [Cyclobenzaprine hydrochloride]: −0.1641; for `NS(=O)(=O)c1cc2c(cc1Cl)NC(CC1CCCC1)NS2(=O)=O` (stereo not drawn) [Cyclopenthiazide]: 2.573.
As for `CN(C)CCOC(=O)C(c1ccccc1)C1(O)CCCC1` (stereo not drawn) [Cyclopentolate hydrochloride], the z.score.t is listed as −0.5614.
As for `CN1CCC(=C2c3ccccc3C=Cc3ccccc32)CC1` [Cyproheptadine hydrochloride], the z.score.t stood at 0.4486.
Consider `CC(=O)O[C@]1(C(C)=O)CC[C@H]2[C@@H]3C=C(Cl)C4=CC(=O)[C@@H]5C[C@@H]5[C@]4(C)[C@H]3CC[C@@]21C` [Cyproterone acetate], for which the z.score.t is listed as −0.5219.
On the same count and under the same terms, the same measure for `N[C@@H]1CONC1=O` [D-cycloserine]: 0.9162; for `CN(C)/N=N/c1[nH]cnc1C(N)=O` [Dacarbazine]: −0.6301; for `C#C[C@]1(O)CC[C@H]2[C@@H]3CCC4=Cc5oncc5C[C@]4(C)[C@H]3CC[C@@]21C` [Danazol]: 0.1149.
For `O=C1CN(/N=C/c2ccc(-c3ccc([N+](=O)[O-])cc3)o2)C(O)=N1` [Dantrolene sodium salt], the z.score.t is on record as 1.306.
In the case of `Nc1ccc(S(=O)(=O)c2ccc(N)cc2)cc1` [Dapsone], the z.score.t stood at 1.024.
Turning to `N=C(N)N1CCc2ccccc2C1` [Debrisoquin sulfate], the z.score.t worked out at 0.6578.
Same read-out and setting: the same measure for `C[N+](C)(C)CCCCCCCCCC[N+](C)(C)C` [Decamethonium bromide]: −1.558.
The same measure, in the same setting: as for `C[C@H](CCC(=O)O)[C@H]1CC[C@H]2[C@@H]3C(=O)C[C@@H]4CC(=O)CC[C@]4(C)[C@H]3CC(=O)[C@]12C` [Dehydrocholic acid], the figure is 1.472.
Take `CN(C)[C@@H]1C(O)=C(C(N)=O)C(=O)[C@@]2(O)C(O)=C3C(=O)c4c(O)ccc(Cl)c4[C@@H](O)[C@H]3C[C@@H]12` [Demeclocycline hydrochloride]: the z.score.t is listed as 0.4318.
Still for that read-out and setting: the same measure for `CC[N+](CC)(CC(=O)Nc1c(C)cccc1C)Cc1ccccc1` [Denatonium benzoate]: −1.472; for `Cc1cc(N)c2ccccc2[n+]1CCCCCCCCCC[n+]1c(C)cc(N)c2ccccc21` [Dequalinium dichloride]: 0.5046; for `CNCCCN1c2ccccc2CCc2ccccc21` [Desipramine hydrochloride]: −1.014.
Still for that read-out and setting: as for `CC(=O)OCC(=O)[C@@]1(O)[C@H](C)C[C@H]2[C@@H]3CCC4=CC(=O)C=C[C@]4(C)[C@@]3(F)[C@@H](O)C[C@@]21C` [Dexamethasone acetate], the figure is 0.4486; as for `CC1=NS(=O)(=O)c2cc(Cl)ccc2N1` [Diazoxide], 0.4626.
With `CCCCOc1cc(C(=O)NCCN(CC)CC)c2ccccc2n1` [Dibucaine], the z.score.t is given as −1.214.
Same read-out and setting: the same measure for `NS(=O)(=O)c1cc(Cl)c(Cl)c(S(N)(=O)=O)c1` [Dichlorphenamide]: −0.8317; for `O=C(O)Cc1ccccc1Nc1c(Cl)cccc1Cl` [Diclofenac sodium]: 0.563.
The same measure, in the same setting: as for `Cc1onc(-c2c(Cl)cccc2Cl)c1C(=O)N[C@@H]1C(=O)N2[C@@H]1SC(C)(C)[C@@H]2C(=O)O` [Dicloxacillin sodium salt], the figure is 1.942.
Regarding `O=c1oc2ccccc2c(O)c1Cc1c(O)c2ccccc2oc1=O` [Dicumarol], the z.score.t is given as −0.3242.
With `CCN(CC)CCOC(=O)C1(C2CCCCC2)CCCCC1` [Dicyclomine hydrochloride], the z.score.t was −0.2865.
`O=c1[nH]cnc2c1ncn2[C@H]1CC[C@@H](CO)O1` [Didanosine]: the z.score.t was −0.07933.
On the same count and under the same terms, the same measure for `C/C=C(/C(=C/C)c1ccc(O)cc1)c1ccc(O)cc1` [Dienestrol]: −1.123.
On the same count and under the same terms, as for `CCN(CC)C(=O)N1CCN(C)CC1` [Diethylcarbamazine citrate], the figure is 0.378; as for `CC/C(=C(/CC)c1ccc(O)cc1)c1ccc(O)cc1` [Diethylstilbestrol], 1.624; as for `CC(=O)OCC(=O)[C@@]1(OC(C)=O)[C@@H](C)C[C@H]2[C@@H]3C[C@H](F)C4=CC(=O)C=C[C@]4(C)[C@@]3(F)[C@@H](O)C[C@@]21C` [Diflorasone Diacetate], 1.72.
Still for that read-out and setting: as for `O=C(O)c1cc(-c2ccc(F)cc2F)ccc1O` [Diflunisal], the figure is 0.7162; as for `C[C@]12CC[C@H](O)C[C@H]1CC[C@@H]1[C@@H]2C[C@@H](O)[C@]2(C)[C@@H](C3=CC(=O)OC3)CC[C@]12O` [Digoxigenin], −2.387.
In the case of `CC(C)[C@@]1(NC(=O)[C@@H]2C[C@@H]3c4cccc5[nH]cc(c45)C[C@H]3N(C)C2)O[C@@]2(O)[C@@H]3CCCN3C(=O)[C@H](Cc3ccccc3)N2C1=O` [Dihydroergocristine mesylate], the z.score.t was −0.3319.
Regarding `CN[C@@H]1[C@H](O[C@H]2[C@H](O[C@H]3[C@H](O)[C@@H](O)[C@H](NC(=N)N)[C@@H](O)[C@@H]3NC(=N)N)O[C@@H](C)[C@]2(O)CO)O[C@@H](CO)[C@H](O)[C@H]1O` [Dihydrostreptomycin sulfate], the z.score.t was −0.359.
As for `COc1cc(C(=O)OCCCN2CCCN(CCCOC(=O)c3cc(OC)c(OC)c(OC)c3)CC2)cc(OC)c1OC` [Dilazep dihydrochloride], the z.score.t is −1.444.
With `CN(C(=O)C(Cl)Cl)c1ccc(OC(=O)c2ccco2)cc1` [Diloxanide furoate], the z.score.t is 1.069.
Same read-out and setting: as for `COc1ccc([C@@H]2Sc3ccccc3N(CCN(C)C)C(=O)[C@@H]2OC(C)=O)cc1` [Diltiazem hydrochloride], the figure is 0.6906; as for `CN(C)CCCSC(=N)N` [Dimaprit dihydrochloride], 1.918; as for `CN(C)CCOC(c1ccccc1)c1ccccc1.Cn1c(=O)c2[nH]c(Cl)nc2n(C)c1=O` [Dimenhydrinate], 0.08508.
As for `CC1(C)OC(=O)NC1=O` [Dimethadione], the z.score.t is −0.03362.
Consider `CCCCc1cc2ccccc2c(OCCN(C)C)n1` [Dimethisoquin hydrochloride], for which the z.score.t is 0.04918.
Same read-out and setting: the same measure for `CCCCC[C@H](O)/C=C/[C@@H]1[C@@H](C/C=C\CCCC(=O)O)[C@@H](O)C[C@H]1O` [Dinoprost trometamol]: 1.789; for `COc1ccc(C(=O)c2ccccc2O)c(O)c1` [Dioxybenzone]: −0.2359.
`O=C(Nc1ccccc1)OCC(CN1CCCCC1)OC(=O)Nc1ccccc1` (stereo not drawn) [Diperodon hydrochloride]: the z.score.t is −0.7776.
